Measured values reported in paper PMC12040169 (PLOS Biology, 2025).

Assay: in vitro
Conditions: human, hela cells, % viability

| SMILES | viability at 28.5 h, 10 µM [%] |
| --- | --- |
| OC1CC(c2cc(F)ccc2F)N(CCc2ccncc2)C1 (centres unmarked) [CBK305106] | 87.2 |
| Cc1cccc(-c2nc(CN(C)CC(=O)NC(C)C)no2)c1 [CBK305109] | 115 |
| COCCc1nsc(N2CCCC(c3nccs3)C2)n1 (centres unmarked) [CBK305110] | 92 |
| CCC(CC)n1nc(C(=O)NC2(C#N)CCSC2)cc1C (centres unmarked) [CBK305111] | 103 |
| O=C(CN1CCCC1Cn1cncn1)NCCc1ccsc1 (centres unmarked) [CBK305113] | 85.2 |
| CCOC(=O)c1cnn(C2CCCN(Cc3cccn3C)C2)c1 (centres unmarked) [CBK305114] | 84.3 |
| NC(=O)c1cccc(CNC2CCCN(c3cccnn3)C2)c1 (centres unmarked) [CBK305115] | 103 |
| COCc1nc2n(n1)CC(NC1CCCc3sccc31)CC2 (centres unmarked) [CBK305116] | 90.1 |
| CC(C)c1nc(NCc2nnc3n2CCC3)nc(N(C)C)n1 [CBK305117] | 99.5 |
| CCc1nc(C(C)NCC(=O)Nc2cc(C)nn2C)cs1 (centres unmarked) [CBK305118] | 97.8 |
| Cc1nc(CNCc2c(C(C)C)nn(C)c2N(C)C)cs1 [CBK305119] | 109 |
| Cc1noc(C2COCCN2C(=O)c2cc(Cl)cn2C)n1 (centres unmarked) [CBK305120] | 98.8 |
| CCOC(=O)c1cnn(C2CCCN(Cc3cccs3)C2)c1 (centres unmarked) [CBK305121] | 99.5 |
| Cc1nnc(CN(C)C2CCN(CCc3cccs3)C2)n1C (centres unmarked) [CBK305126] | 97.8 |
| CC(NCC(=O)NC1(C#N)CCCCC1)C(C)n1cccn1 (centres unmarked) [CBK305129] | 91.4 |
| COCCn1c(SC2CCN(C)C2=O)nc2ccccc21 (centres unmarked) [CBK305131] | 97.9 |
| CC(C)c1nn(C)c(N(C)C)c1CNCCc1cnn(C)c1 [CBK305135] | 108 |
| Cc1cccc(CCNC(=O)N2CCC(Cc3cnn(C)c3)C2)c1 (centres unmarked) [CBK305137] | 110 |
| COc1ccc(Br)c(C(=O)N(C)Cc2cnn(C)c2)c1 [CBK305142] | 97.7 |

| SMILES | viability at 28.5 h, 10 µM [%] |
| --- | --- |
| CC(=O)c1cccc(NC(=O)CN2CCCC2c2cccs2)c1 (centres unmarked) [CBK305143] | 109 |
| CCN(C(C)COC)S(=O)(=O)c1cccc(Cl)c1Cl (centres unmarked) [CBK305146] | 98.4 |
| CCCCCCN(CCN1CCOCC1)C(=O)Nc1cc(C)on1 [CBK305147] | 84.7 |
| O=C(NCCN1CCCCC1)C1CC(=O)N(c2ccccc2F)C1 (centres unmarked) [CBK305148] | 86.8 |
| COc1ccnc(N2CCCN(Cc3ncc(Cl)n3C)CC2)n1 [CBK305152] | 111 |
| Cn1cc(CNCC2CCN(CCO)CC2)c(-c2cccnc2)n1 [CBK305153] | 91.2 |
| O=C(CC1OCCc2ccsc21)N1CCCC(n2cccn2)C1 (centres unmarked) [CBK305154] | 96.7 |
| CC(C(=O)NC1(C#N)CCCCC1)N1CCOC(CN(C)C)C1 (centres unmarked) [CBK305155] | 88.6 |
| COCCn1cc(C(=O)N2CCOC3CCCC32)c2ccccc21 (centres unmarked) [CBK305156] | 86.1 |
| CCC(CCO)CNc1ncnc2ccc(S(C)(=O)=O)cc12 (centres unmarked) [CBK305157] | 84 |
| CC(=O)Nc1cccc(C(=O)N2CCN(CC3CCCO3)CC2)c1 (centres unmarked) [CBK305158] | 96 |
| N#Cc1ccc(N2CCCC(N3CCNC3=O)C2)c(C(F)(F)F)c1 (centres unmarked) [CBK305162] | 84.9 |
| CC(Sc1nc2ccc(Cl)cc2o1)C(=O)N1CCOCC1 (centres unmarked) [CBK305164] | 92.1 |
| COCC(O)CN(C)c1nc(-c2ccncc2)nc2ccccc12 (centres unmarked) [CBK305170] | 78.7 |
| Cc1nnc(C(C)N2CCN(Cc3noc(C(C)(C)C)n3)CC2)o1 (centres unmarked) [CBK305171] | 85.7 |
| CCC(NC(=O)Nc1ccc(N2CCOCC2)nc1)c1cnn(CC)c1 (centres unmarked) [CBK305172] | 90.6 |
| Cn1cc(CNS(=O)(=O)c2ccc(F)c(Br)c2)cn1 [CBK305174] | 92.5 |
| COCCOCC(C)NC(=O)COc1nn(C)c2nc(C)cc(C)c12 (centres unmarked) [CBK305177] | 105 |
| CS(=O)(=O)CCOCCNC(=O)c1cc(Br)cnc1Cl [CBK305178] | 86.4 |
